Legend:
[1] = polymorph stability and shelf life; type: physicochemical; conditions: particularly at temperatures of less than 95° C.
Description: The above-referenced compound can be used to prevent or treat PAH/APAH in either an amorphous or crystalline form. Two different polymorph crystalline forms are identified by x-ray powder diffraction patterns set forth in FIG. 1 (Form 3) and FIG. 2 (Form 1) as well as Tables 1 and 2 (Form 3) and Tables 3 and 4 (Form 1).

[2] = Example 3 healthy subjects QD vs BID: KAR5417 plasma levels; type: in vivo, human
Method: (§1) 24 healthy subjects received 800 mg total daily oral doses of RVT-1201 or placebo (PBO), either as single (800 mg QD) or divided (400 mg BID) doses for 14 days across two cohorts (9 active: 3 PBO per cohort). KAR5417 plasma levels and change from Baseline (BSL) PD biomarker data (plasma and urine 5-HIAA) were compared between QD and BID cohorts at day 14. Safety and tolerability were assessed via adverse event (AE) monitoring and laboratory, vital signs and ECG assessments.

PAH [3] = assay: monocrotaline prevention model of PAH; type: in vivo; conditions: rat, oral 100 mg/kg/day
PAH [4] = assay: SUGEN-hypoxia treatment model for established PAH; type: in vivo; conditions: rat, oral 100 mg/kg/day
serotonin biosynthesis [5] = assay: rat serotonin biomarkers (serum serotonin, urinary 5-HIAA); type: in vivo; conditions: 30 to 300 mg/kg/day, dose-dependent
Method: RVT-1201 (30 to 300 mg/kg/day) may yield a dose-dependent reduction in rat serum serotonin (−27% to −96%) and 24 h urinary output of 5-HIAA (−45% to −56%). HIAA is a metabolite that reflects total serotonin biosynthesis.

serotonin biomarkers = assay: divided dose pharmacodynamic studies in rats (QD vs BID vs TID); type: in vivo, rat
Method: (§2) TPH1 is the rate-limiting enzyme for peripheral biosynthesis of serotonin (5HT), which has been implicated as a causative factor in PAH. RVT-1201 decreased pulmonary vessel wall thickness in 2 PAH rodent models indicating potential to halt/reverse pulmonary remodeling in humans. The median effective dose (100 mg/kg QD) in PAH rat models yielded a ˜35% reduction in 5-HT biosynthesis (based on urinary 5-HIAA, a metabolite of 5HT). […] The example compares reductions in 5-HIAA levels following QD and BID dosing in healthy subjects.

[6] = Example 2 healthy human subjects: safety and tolerability; type: in vivo; conditions: doses required to achieve clinically-relevant AUC
Method: (§3) Healthy human subjects (n=˜120) may receive RVT-1201.
(§4) Mean change in plasma 5-HIAA may be about −53% from Day 1 to Day 14, whereas placebo may be about +26%. Interpolation of KAR5417 AUC between 400 mg and 800 mg BID regimens may show 500-600 mg BID in humans will achieve the target exposure associated with efficacy in rat models.

[7] = Example 2 healthy human subjects: pharmacokinetics; type: in vivo
Method: as §3, §4

serotonin biosynthesis [8] = assay: Example 2 healthy human subjects: plasma 5-HIAA; type: in vivo; conditions: 400 mg BID, Day 1 to Day 14
Method: as §4

PAH [9] = assay: PAH rodent models (Example 3 background); type: in vivo, rat
Method: as §2

serotonin biosynthesis [10] = assay: Example 3 healthy subjects QD vs BID: plasma and urine 5-HIAA; type: in vivo, human; conditions: day 14, change from baseline
Method: as §1

[11] = Example 3 healthy subjects QD vs BID: safety and tolerability; type: in vivo, human
Method: as §1

CCOC(=O)[C@@H]1CC2(CCN(c3cc(O[C@H](c4ccc(Cl)cc4-c4ccccc4)C(F)(F)F)nc(N)n3)CC2)CN1 [crystalline Form 3, (S)-ethyl 8-(2-amino-6-((R)-1-(5-chloro-[1,1′-biphenyl]-2-yl)-2,2,2-trifluoroethoxy)pyrimidin-4-yl)-2,8-diazaspiro[4.5]decane-3-carboxylate]
stability and shelf life compared to crystalline Form 1 [1]: substantially greater stability and shelf life

Nc1nc(O[C@H](c2ccc(Cl)cc2-c2ccccc2)C(F)(F)F)cc(N2CCC3(CC2)CN[C@H](C(=O)O)C3)n1 [KAR5417, (S)-8-(2-amino-6-((R)-1-(5-chloro-[1,1′-biphenyl]-2-yl)-2,2,2-trifluoroeth-oxy)pyrimidin-4-yl)-2,8-diazaspiro[4.5]decane-3-carboxylic acid]
KAR5417 mean pAUC0-24 ([2]; RVT-1201 400 mg BID oral, day 14): 10400 ng*h/mL | AUC(0-t) ([2]; human, plasma, RVT-1201 800 mg QD oral, day 14, read-out: KAR5417 mean AUC0-24): 9180 ng·h/mL

CCOC(=O)[C@@H]1CC2(CCN(c3cc(O[C@H](c4ccc(Cl)cc4-c4ccccc4)C(F)(F)F)nc(N)n3)CC2)CN1 [RVT-1201, (S)-ethyl 8-(2-amino-6-((R)-1-(5-chloro-[1,1′-biphenyl]-2-yl)-2,2,2-trifluoroethoxy)pyrimidin-4-yl)-2,8-diazaspiro[4.5]decane-3-carboxylate]
block or ameliorate PAH (PAH [3]): may block or ameliorate PAH | block or ameliorate PAH (PAH [4]): may block or ameliorate PAH | reduction in 24 h urinary output of 5-HIAA (serotonin biosynthesis [5]): −45% to −56% | reduction in rat serum serotonin (serotonin biosynthesis [5]): −27% to −96% | QD dosing versus more frequent dosing, lowering of 5-HT (serotonin biomarkers; healthy rats, QD vs BID vs TID): as effective as more frequent dosing | once daily administration versus BID or TID regimens (serotonin biomarkers; rats, 75 mg/kg/day): comparable to BID or TID regimens | serotonin reduction (serotonin biomarkers; rats, 75 mg/kg/day, divided dose studies): ~65% | tolerability [6]: well tolerated | human dose achieving target exposure associated with efficacy in rat models ([7]; BID, interpolation of KAR5417 AUC between 400 mg and 800 mg BID regimens): 500 to 600 mg | AUC following single doses versus dose ([7]; healthy human subjects, standard meals, single doses 200 to −1200 mg): proportional to dose | mean change in plasma 5-HIAA (serotonin biosynthesis [8]): about −53% | pulmonary vessel wall thickness (PAH [9]; 2 PAH rodent models): decreased | median effective dose (PAH [9]; PAH rat models, QD): 100 mg/kg | reduction in 5-HT biosynthesis (based on urinary 5-HIAA) (PAH [9]; PAH rat models, at median effective dose 100 mg/kg QD): ~35% | mean (±SD) reduction in plasma 5-HIAA (serotonin biosynthesis [10]; 400 mg BID): 49.9 (9.52) % | mean (±SD) reduction in urinary 5-HIAA (serotonin biosynthesis [10]; 400 mg BID): 55.5 (10.3) % | mean (±SD) reduction in plasma 5-HIAA (serotonin biosynthesis [10]; 800 mg QD): 40.0 (6.32) % | mean (±SD) reduction in urinary 5-HIAA (serotonin biosynthesis [10]; 800 mg QD): 45.8 (6.59) % | overall incidence of GI-related AEs ([11]; QD group (800 mg QD), 14 days): 78% | tolerability ([11]; both dose regimens (800 mg QD, 400 mg BID), 14 days): generally well-tolerated | overall incidence of GI-related AEs ([11]; divided dose group (400 mg BID), 14 days): 33% | treatment-related withdrawals ([11]; either cohort): no treatment-related withdrawals
